Measurements taken from patent US20180231561A1, “METHODS FOR TREATING SOLID TUMORS AND THE USE OF BIOMARKERS AS A PREDICTOR OF CLINICAL SENSITIVITY TO IMMUNOMODULATORY THERAPIES” (CELGENE CORPORATION, priority 2015, published 2018).
Entries after “also recorded” stand apart in the source; their conditions may differ. Where a SMILES comes first, the peptide text is derived from it. The star is where a group is joined. Cbz = O=C(OCc1ccccc1)*

Assays:
[1] = test system: Hep3B cells; test: Growth response of Hep3B cells to treatment compounds (FIG. 6B); assay type: cell-based, human
[2] = test system: ZFP91; test: Western blot of ZFP91 protein level in HCC cell lines Focus and JHH4; assay type: cell-based; conditions: for effect of the compound on ZFP91 after knocking down of CRBN: CRBN knockdown, Focus and JHH4 cells
[3] = test system: ZFP91; test: as above; assay type: cell-based; conditions: for effect on Compound A-induced ZFP91 degradation: Focus and JHH4, 2D, 10 μM for 1 hour, then 5 μM Compound A for 6 hours
Description: (§1) Both HCC cells, Focus and JHH4 in 3D setting, were cultured continuously for 15 days treated with either DMSO or Compound A, or were first cultured for about 7 days prior to treatment with either DMSO or Compound A for 24 hours or 72 hours. Cells were harvested and proteins were prepared from the cells for proteomics analysis. The growth of the cells on control plates was also analyzed. In particular, cells were plated in media containing either DMSO or Compound A. Cells were cultured for certain time, and then were harvested onto filter plates. After the plates have dried, scintillation fluid was added to the plates and read on a Top-count reader.
Focus cells were cultured for 18 days either continuously for 18 days in the medium containing DMSO, Compound A, or Compound B, or cultured for 7 days prior to treating with DMSO, Compound A, or Compound B for 11 days. Then cells were harvested and were treated in 200 μl cold cell lysis buffer (1% Triton X-100 from Cell Signaling supplemented with protease inhibitors and phophatase inhibitors from Roche) to generate cell lysate. Proteins from cell lysate were separated by 4-12% nupage gels (Invitrogen) and transferred to nitrocellulose membranes. Immunoblots were then probed with antibodies recognizing CRBN, ZFP91 (LSBio) and β-actin (Li-Cor). Signals were detected with a Li-Cor Odyssey Imager. As shown, the level of ZFP91 reduced in response to treatment with Compound A or Compound B.
(§2) HCC cells from both Focus and JHH4 cell lines in 2D setting treated with Compound A for 6 hours, 24 hours, and 72 hours, and JHH4 cells in 3D setting treated with Compound A for 15 days were also analyzed by western blot. Cells were harvested and were treated in 200 μl cold cell lysis buffer (1% Triton X-100 from Cell Signaling supplemented with protease inhibitors and phophatase inhibitors from Roche) to generate cell lysate. Proteins from cell lysate were separated by 4-12% Nupage gels (Invitrogen) and transferred to nitrocellulose membranes. Immunoblots were then probed with antibodies recognizing CRBN, ZFP91 (LSBio), P-TBK1, and β-actin (Li-Cor). Signals were detected with a Li-Cor Odyssey Imager. As shown, the level of ZFP91 reduced in response to treatment with Compound A for 6 hours, 24 hours, or 72 hours in both cell lines in 2D setting. […] The level of CRBN increased in response to treatment with Compound A for 6 hours, 24 hours, or 72 hours in both cell lines in 2D setting. […] ZFP91 degradation induced by various doses of Compound A for various time periods was also tested in both Focus and JHH4 cells, as shown in FIG. 4C.
HCC cells from both Focus and JHH4 cell lines in 2D setting were first treated with 10 μM MG132 or MLN4924 for 1 hour, and then were treated with 5 μM DMSO or 5 μM Compound A for 6 hours. Cells were harvested and were treated in cell lysis buffer to generate cell lysate. Proteins from cell lysate were separated by gel electrophoresis and transferred to nitrocellulose membranes. Immunoblots were then probed with antibodies recognizing CRBN, ZFP91 (LSBio), and β-actin (Li-Cor). The results were shown in FIG. 5A, and as shown, both […] or MLN4924 inhibited ZFP91 degradation. MG132 activates c-Jun N-terminal kinase (JNK1), which initiates apoptosis. […] MLN4924 is a NAE1 inhibitor that blocks the activity of Cullin Ring Ligases (CRLs), such as CRL4CRBN.

[4] = test system: ZFP91; test: Western blot of ZFP91 level in Hep3B cells; assay type: cell-based, human
Description: The change of ZFP91 level in response to Compound A or Compound B treatments was also evaluated in human hepatoma Hep3B cell lines. Hep3B cells were treated with Compound A or Compound B, and cells were harvested and treated in lysis buffer to generate cell lysate. Proteins from cell lysate were separated by electrophoresis gel and transferred to nitrocellulose membranes. Immunoblots were then probed with antibodies recognizing CRBN, ZFP91, and β-actin. Signals were detected with a Li-Cor Odyssey Imager. The results were shown in the upper panel of FIG. 6A. […] Thus, ZFP91 may be degraded in response treatment compounds regardless of growth response of the cells to the treatment compounds.

[5] = test system: ZFP91; test: Western blot of ZFP91 level in glioblastoma cell lines U87 and SNB19; assay type: cell-based, human; conditions: U87 and SNB19 cells
Description: The change of ZFP91 level in response to treatment compounds was evaluated in other solid tumor cell lines, e.g., glioblastoma (GBM) cell lines. […] Proteins from cell lysate were separated by electrophoresis gel and transferred to nitrocellulose membranes. Immunoblots were then probed with antibodies recognizing ZFP91 and β-actin. Signals were detected with a Li-Cor Odyssey Imager.

[6] = test system: JHH4 cells; test: Colony growth on control plates, 3D JHH4 cells; assay type: cell-based; conditions: 3D JHH4, control plates, vs DMSO
[7] = test system: HCC xenografts (excised xenograft tumors of HAK-1AJ and Focus); test: Proteomic screening (TMT) of HCC xenografts treated with DMSO or Compound A; assay type: cell-based
Description: HCC xenografts (excised xenograft tumors of HAK-1AJ and Focus) were treated with either with DMSO, or Compound A for either once (single) or multiple times. Cells were harvested at 24 or 72 hours time points, and proteins were fractionated using a basic pH reverse gradient method. Fractionated samples were labeled using a Tandem Mass Tag (TMT) method. Relative abundance was calculated.

[8] = test system: ZFP91; test: Immunostaining of ZFP91 in U87 xenograft tissue; assay type: in vivo
[9] = test system: FOCUS cell line; test: Proteomic screening in FOCUS cell line under 3D culture; assay type: cell-based; conditions: 3D conditions
Description: as §1

[10] = test system: P-TBK1; test: Western blot of P-TBK1 in HCC cells; assay type: cell-based; conditions: 3D setting
Description: as §2

[11] = test system: U87 tumor; test: U87 xenograft tumor growth; assay type: in vivo; conditions: 3 and 30 mg/kg qd
[12] = test system: JHH4 cell line; test: Proteomic screening in JHH4 cell line under 3D culture; assay type: cell-based
Description: as §1

[13] = test system: CRBN; test: Western blot of CRBN protein level in HCC cell lines Focus and JHH4; assay type: cell-based
Description: as §2, with “Both HCC cells, Focus and JHH4 in 3D setting, were cultured continuously for 15 days treated with either DMSO or Compound A, or were first cultured for about 7 days prior to treatment with either DMSO or Compound A for 24 hours or 72 hours. Cells were harvested and proteins were prepared from the cells for proteomics analysis. The growth of the cells on control plates was also analyzed. In particular, cells were plated in media containing either DMSO or Compound A. Cells were cultured for certain time, and then were harvested onto filter plates. After the plates have dried, scintillation fluid was added to the plates and read on a Top-count reader. HCC” for “HCC”

[14] = test system: MST1R (RON), PARP4, MVP, ZFP91, IKBKE, PDE6D, CK1alpha, LGALS2, KAT1, GSPT1, CRBN; test: Western blot confirmation of proteins identified in the proteomic studies (FIG. 8); assay type: cell-based
From the text: Representative proteins identified in the proteomic studies were confirmed in western blot analysis, such as those shown in FIG. 8.

[15] = test system: Focus cells; test: Colony growth on control plates, 3D Focus cells; assay type: cell-based; conditions: vs DMSO
[16] = test system: NF-κB; conditions: read-out: IC50 NF-κB activation; cited from earlier work
[17] = molecular target: CRBN (Homo sapiens, UniProt Q96SW2); conditions: in vitro; cited from earlier work
[18] = Focus cells, 18 days continuous, or 7 days culture then 11 days treatment
[19] = Focus and JHH4, 2D setting, 6 hours, 24 hours or 72 hours
[20] = Focus and JHH4, 3D, control plate and proteomic preparation, beta-actin control

Chain of CRBN (Homo sapiens, UniProt Q96SW2) (Q96SW2 whole entry, species assumed): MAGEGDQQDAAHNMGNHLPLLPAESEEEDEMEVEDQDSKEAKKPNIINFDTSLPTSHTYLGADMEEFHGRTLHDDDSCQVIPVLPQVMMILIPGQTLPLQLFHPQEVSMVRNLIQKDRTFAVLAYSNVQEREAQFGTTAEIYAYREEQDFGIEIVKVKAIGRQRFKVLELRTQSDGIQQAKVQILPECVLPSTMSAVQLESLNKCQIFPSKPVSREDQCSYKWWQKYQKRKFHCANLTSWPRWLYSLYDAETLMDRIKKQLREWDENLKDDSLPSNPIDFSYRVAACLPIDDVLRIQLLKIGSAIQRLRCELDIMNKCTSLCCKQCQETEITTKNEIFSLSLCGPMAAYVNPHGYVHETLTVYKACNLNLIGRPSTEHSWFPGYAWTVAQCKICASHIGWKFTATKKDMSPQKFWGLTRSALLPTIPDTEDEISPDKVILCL
Chain of CRBN (Homo sapiens, UniProt Q96SW2) (Q16531 whole entry partner, species assumed): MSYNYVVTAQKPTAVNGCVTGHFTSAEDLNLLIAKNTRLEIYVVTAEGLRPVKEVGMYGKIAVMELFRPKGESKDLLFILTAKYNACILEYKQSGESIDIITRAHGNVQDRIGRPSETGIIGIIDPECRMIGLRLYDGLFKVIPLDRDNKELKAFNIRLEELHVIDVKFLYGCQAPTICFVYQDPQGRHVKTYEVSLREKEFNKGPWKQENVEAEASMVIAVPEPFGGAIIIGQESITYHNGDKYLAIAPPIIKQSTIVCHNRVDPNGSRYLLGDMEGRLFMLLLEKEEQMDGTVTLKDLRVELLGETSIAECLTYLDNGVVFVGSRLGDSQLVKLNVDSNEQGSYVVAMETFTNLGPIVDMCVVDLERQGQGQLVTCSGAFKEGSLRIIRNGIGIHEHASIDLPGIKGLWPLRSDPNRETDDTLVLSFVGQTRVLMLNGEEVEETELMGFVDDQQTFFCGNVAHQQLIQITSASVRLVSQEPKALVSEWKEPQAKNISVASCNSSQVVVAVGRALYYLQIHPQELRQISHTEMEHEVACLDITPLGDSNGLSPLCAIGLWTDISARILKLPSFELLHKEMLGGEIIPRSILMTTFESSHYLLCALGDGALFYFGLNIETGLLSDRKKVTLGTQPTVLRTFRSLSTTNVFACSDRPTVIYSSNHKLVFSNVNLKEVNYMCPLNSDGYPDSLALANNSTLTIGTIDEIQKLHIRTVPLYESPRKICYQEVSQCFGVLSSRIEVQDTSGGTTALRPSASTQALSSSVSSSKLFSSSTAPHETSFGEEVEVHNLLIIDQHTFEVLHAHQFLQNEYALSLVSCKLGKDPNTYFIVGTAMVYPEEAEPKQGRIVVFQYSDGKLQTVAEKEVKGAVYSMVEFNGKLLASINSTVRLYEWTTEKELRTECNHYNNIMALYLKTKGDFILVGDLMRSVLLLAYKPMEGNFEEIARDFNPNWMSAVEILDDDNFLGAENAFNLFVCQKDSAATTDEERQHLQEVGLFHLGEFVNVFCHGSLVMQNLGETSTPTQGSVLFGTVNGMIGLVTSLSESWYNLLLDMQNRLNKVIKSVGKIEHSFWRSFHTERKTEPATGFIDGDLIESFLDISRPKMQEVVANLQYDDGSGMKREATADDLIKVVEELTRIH
Chain of CRBN (Homo sapiens, UniProt Q96SW2) (Q13619 whole entry partner, species assumed): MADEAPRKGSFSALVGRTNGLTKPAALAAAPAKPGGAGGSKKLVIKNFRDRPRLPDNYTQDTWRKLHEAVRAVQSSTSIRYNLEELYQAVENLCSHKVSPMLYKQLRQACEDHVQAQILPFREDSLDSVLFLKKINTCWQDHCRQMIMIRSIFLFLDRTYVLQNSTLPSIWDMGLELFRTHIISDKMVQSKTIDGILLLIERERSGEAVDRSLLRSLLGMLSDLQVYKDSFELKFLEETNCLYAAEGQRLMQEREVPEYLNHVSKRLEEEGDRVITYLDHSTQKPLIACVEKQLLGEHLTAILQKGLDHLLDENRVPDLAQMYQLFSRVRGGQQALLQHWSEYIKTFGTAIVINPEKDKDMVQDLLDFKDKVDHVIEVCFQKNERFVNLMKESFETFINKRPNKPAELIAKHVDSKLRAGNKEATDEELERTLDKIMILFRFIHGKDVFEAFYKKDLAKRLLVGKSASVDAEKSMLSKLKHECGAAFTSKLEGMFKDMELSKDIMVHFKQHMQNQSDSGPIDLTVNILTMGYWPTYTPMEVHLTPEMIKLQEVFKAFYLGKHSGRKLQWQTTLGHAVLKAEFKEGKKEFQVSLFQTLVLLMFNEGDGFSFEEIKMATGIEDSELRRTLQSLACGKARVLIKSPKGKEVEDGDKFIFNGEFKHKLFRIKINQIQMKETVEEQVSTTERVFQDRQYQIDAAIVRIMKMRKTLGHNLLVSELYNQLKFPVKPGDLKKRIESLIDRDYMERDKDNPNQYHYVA
Chain of CRBN (Homo sapiens, UniProt Q96SW2) (P62877 whole entry partner, species assumed): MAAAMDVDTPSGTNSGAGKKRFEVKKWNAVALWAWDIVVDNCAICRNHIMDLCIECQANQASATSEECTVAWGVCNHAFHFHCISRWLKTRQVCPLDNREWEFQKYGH

O=C1CCC(N2Cc3c(OCc4ccc(CN5CCOCC5)cc4)cccc3C2=O)C(=O)N1 (centres unmarked) [Compound B, 3-[4-(4-Morpholin-4-ylmethyl-benzyloxy)-1-oxo-1,3-dihydro-isoindol-2-yl]-piperidine-2,6-dione]
sensitivity of Hep3B cells to the compound [1]: sensitive | effect of the compound on ZFP91 after knocking down of CRBN [2]: reversed | level of ZFP91 [3, 18]: reduces | ZFP91 level [4]: down-regulated

NS(=O)(=O)OC[C@@H]1C[C@@H](n2ccc3c(N[C@H]4CCc5ccccc54)ncnc32)C[C@@H]1O [MLN4924, reference compound]
effect on Compound A-induced ZFP91 degradation [3]: inhibited | effect on Compound A-induced ZFP91 degradation ([3]; listed as MLN): block | effect on reduction of ZFP91 by treatment compounds [5]: blocked | effect on reduction of ZFP91 by Compound A or Compound B [4]: blocked

Cc1nc2cccc(N)c2c(=O)n1C1CCC(=O)NC1=O (centres unmarked) [Compound A, 3-(5-amino-2-methyl-4-oxo-4H-quinazolin-3-yl)-piperidine-2,6-dione]
colony number [6]: reduced | total colony area [6]: reduced | proteins commonly differentially abundant after treatment ([7]; 24 hours after treatment, both Focus and HAK-1AJ, compared with DMSO): WIBG, KAT1, Nestin, PARP4, and MVP | proteins downregulated in response to treatment ([7]; proteomic screening study): MVP, PARP4, ZFP91, and ZNF198 | proteins upregulated in response to treatment ([7]; proteomic screening study): Nestin, KAT1/CCBL1, and WIBG; also recorded: Nestin, KAT1/CCBL1, WIBG, CK1-alpha, GSPT1 | ZFP91 in U87 xenograft tissue [8]: degrades | sensitivity of Hep3B cells to the compound [1]: not | regulation of the proteins listed in Table 4 [9]: upregulated | regulation of the proteins listed in Table 6 [9]: downregulated | P-TBK1 level [10]: upregulated | effect of the compound on ZFP91 after knocking down of CRBN [2]: reversed | level of ZFP91 under protein synthesis inhibition ([2]; Focus and JHH4 cells treated with 100 ug/ml cycloheximide (CHX)): decreased; also recorded: accelerates | U87 tumor growth [11]: significantly inhibits | level of ZFP91 [3, 19]: reduces | level of ZFP91 protein [3, 20]: reduced | level of ZFP91 [3, 18]: reduces | level of ZFP91 ([3]; JHH4, 3D setting, 15 days): reduced | regulation of the proteins listed in Table 5 ([12]; JHH4, 3D conditions): downregulated | regulation of the proteins listed in Table 3 ([12]; JHH4, 3D culture, basement membrane extracellular matrix): upregulated | level of CRBN [13, 19]: increases | level of CRBN protein [13, 20]: increased | level of CRBN ([13]; JHH4, 3D setting, 15 days): increased | ZFP91 level [5]: down-regulated | proteins whose levels increased in response to treatment [14]: CK1alpha, LGALS2, KAT1, GSPT1 as well as CRBN | proteins whose levels reduced in response to treatment [14]: MST1R (RON), RARP4, MVP, ZFP91, IKBKE, PDE6D | ZFP91 level [4]: down-regulated | colony number [15]: reduced | total colony area [15]: reduced

CC(C)C[C@@H](C=O)NC(=O)[C@H](CC(C)C)NC(=O)[C@H](CC(C)C)NC(=O)OCc1ccccc1 [MG132, reference compound] (Cbz-Leu-Leu-Leu-aldehyde)
effect on Compound A-induced ZFP91 degradation [3]: inhibited; also recorded: block | effect on reduction of ZFP91 by treatment compounds [5]: blocked | IC50 [16]: 3 µM | effect on reduction of ZFP91 by Compound A or Compound B [4]: blocked

O=C1CCC(N2C(=O)c3ccccc3C2=O)C(=O)N1 (centres unmarked) [thalidomide, 2-(2,6-dioxopiperidin-3-yl)-1H-isoindole-1,3(2H)-dione]
auto-ubiquitination of CRBN [17]: inhibit
